Laboratory results as given in patent US9958439B2, “Carbohydrate detection” (RICHTER LIFE SCIENCE DEVELOPMENT AB, priority 2012, dated 2018).
Read-outs that look alike come from different tables or passages of the source.

Columns and labels:
[1] = for RFU change (Correlation analysis): probe-specific excitation λ, emission 545 nm; for carbohydrate can be detected and/or differentiated by the LCO: conclusion from change in signal magnitude and/or shift in λmax
Protocol: (§1) The excitation spectrum of the probe was analyzed for wavelengths 300-500 nm with emission read at 545 nm.
(§2) 3 μM of each probe was applied to serial two fold dilutions of the insoluble carbohydrate. Respective probes were excited at wavelengths unique to each probe (specified in figure), and emission was read at 545 nm.
(§3) Serial dilutions of carbohydrate suspensions were prepared in dH2O. Concentrations ranging from 10 to 0.039 mg/ml was used for β-1,3-glucan, cellulose and chitin, whereas 5 to 0.019 mg/ml was used for sodium alginate, glucose, amylose, glycogen, cellulobiose, heparin, chondroitin sulfate A. 3 μM of each LCO probe was added to 1 ml aliquots of each concentration of carbohydrate, after which 100 μl was dispensed in triplicates into 96 well plates. Excitation spectra were collected by exciting the sample from 300 to 500 nm and detecting emission at 545 nm. Detection of carbohydrate is concluded when there is a reproducible change in λmax and/or RFU intensity with reference to the negative control. Data from three concentrations, as well as the negative control are shown for each carbohydrate as specified in respective figure.
(§4) The excitation wavelength (emission detected at 545 nm) selected for each LCO is either (1) the λmax, or (2) the excitation wavelength which suffers the lowest background. A linear regression analysis is performed to determine the relationship between the carbohydrate concentration and RFU.

[2] = Protocol: 3 μM of each probe was applied to serial two fold dilutions of the insoluble carbohydrate of which the concentration shown here are 5 mg/ml (_.), 2.5 mg/ml (. . . ), 1.25 mg/ml (__) and 0 mg/ml (_). The excitation spectrum of the probe was analyzed for wavelengths 300-500 nm with emission read at 545 nm.
as §2, §3, §4

[3] = remark: listed apart in the source
Protocol: (§5) 3 μM of each probe was applied to serial two fold dilutions of the carbohydrate of which the concentration shown here are 5 mg/ml (_.), 2.5 mg/ml (. . . ) 1.25 mg/ml (__) and 0 mg/ml (_). The excitation spectrum of the probe was analyzed for wavelengths 300-500 nm with emission read at 545 nm.
3 μM of each probe was applied to serial two fold dilutions of the carbohydrate. Respective probes were excited at wavelengths unique to each probe (specified in figure), and emission was read at 545 nm. […] The mean increase in signal (_) with [Glucose] and the fitted regression line (__) is shown.
as §3, §4

[4] = for RFU change (Correlation analysis): probe-specific excitation λ, emission 545 nm; for carbohydrate can be detected and/or differentiated by the LCO: conclusion from change in signal magnitude and/or shift in λmax; remark: listed apart in the source
Protocol: as §5
(§6) 3 μM of each probe was applied to serial two fold dilutions of the carbohydrate. Respective probes were excited at wavelengths unique to each probe (specified in figure), and emission was read at 545 nm.
as §3, §4

[5] = for RFU change (Correlation analysis): probe-specific excitation λ, emission 545 nm; for Gradient Parameters (gradient of regression line) / Linear relationship / Quality of Gradient: linear regression
Protocol: 3 μM of each probe was applied to serial two fold dilutions of the carbohydrate of which the concentration shown here are 5 mg/ml (_.), 2.5 mg/ml (. . . ), 1.25 mg/ml (__) and 0 mg/ml (_). The excitation spectrum of the probe was analyzed for wavelengths 300-500 nm with emission read at 545 nm.
as §6, §3, §4

[6] = remark: listed apart in the source
Protocol: as §1, §6, §3, §4

[7] = Chitin 10-[…], 3 μM probe, spectral analysis, Excitation 300-500, Emission 545
[8] = cellulose concentration vs RFU, linear regression
[9] = chitin concentration vs RFU, linear regression
[10] = β-1,3-glucan concentration vs RFU, linear regression
[11] = sodium alginate concentration vs RFU, linear regression
[12] = glucose concentration vs RFU, linear regression
[13] = Cellulobiose 5-0.019 mg/ml, 3 μM probe, spectral analysis, Excitation 300-500, Emission 545
[14] = amylose concentration vs RFU, linear regression
[15] = cellulobiose concentration vs RFU, linear regression
[16] = Glycogen 5-0.019 mg/ml, 3 μM probe, spectral analysis, Excitation 300-500, Emission 545
[17] = Chondroitin Sulfate A 5-0.019 mg/ml, 3 μM probe, spectral analysis, Excitation 300-500, Emission 545
[18] = Chondroitin Sulfate A concentration vs RFU, linear regression

O=C([O-])C[C@H](NC(=O)Cc1cc(-c2cccs2)sc1-c1ccc(-c2sc(-c3cccs3)cc2CC(=O)N[C@@H](CC(=O)[O-])C(=O)[O-])s1)C(=O)[O-].[Na+].[Na+].[Na+].[Na+] [pHTA-Asp, penta Hydrogen Thiophene Acetic acid Aspartic acid]
RFU change (Correlation analysis) ([1]; Cellulose 10-[…], 3 μM probe): Unclear
RFU change (Signal deviation with increasing [Carbohydrate]) ([1]; Cellulose 10-[…], 3 μM probe, spectral analysis, Excitation 300-500, Emission 545): Unclear
RFU change (Correlation analysis) ([1]; Chitin 10-[…], 3 μM probe): Increases
RFU change (Signal deviation with increasing [Carbohydrate]) [1, 7]: Increases
λmax change [1, 7]: Redshift
carbohydrate can be detected and/or differentiated by the LCO ([1]; Chitin): can be detected and/or differentiated
Gradient Parameters (gradient of regression line) [1, 8]: 12.3 ± 64.4
Quality of Gradient [1, 8]: Horizontal
Gradient Parameters (gradient of regression line) [1, 9]: 3138 ± 491.2
Linear relationship [1, 9]: Significant
Quality of Gradient [1, 9]: Positive
Sensitivity ([1]; to cellulose): No
Sensitivity ([1]; to chitin): Yes
Sensitivity ([1]; to β-1,3-glucan): Yes
carbohydrate can be detected and/or differentiated by the LCO ([1]; β-1,3-Glucan): can be detected and/or differentiated
RFU change (Correlation analysis) ([1]; β-1,3-glucan 10-[…], 3 μM probe): Decrease
RFU change (Signal deviation with increasing [Carbohydrate]) ([1]; β-1,3-glucan 10-[…], 3 μM probe, spectral analysis, Excitation 300-500, Emission 545): Decrease
Gradient Parameters (gradient of regression line) [1, 10]: −792.9 ± 97.3
Quality of Gradient [1, 10]: Negative
RFU change (Correlation analysis) ([2]; Sodium alginate 5-0.019 mg/ml, 3 μM probe, probe-specific excitation λ, emission 545 nm): Unclear
RFU change (Signal deviation with increasing [Carbohydrate]) ([2]; Sodium alginate 5-0.019 mg/ml, 3 μM probe, spectral analysis, Excitation 300-500, Emission 545): Unclear
Gradient Parameters (gradient of regression line) [2, 11]: 41.4 ± 59.6
Quality of Gradient [2, 11]: Horizontal
Sensitivity ([2]; to sodium alginate): No
RFU change (Correlation analysis) ([3]; Glucose 5-0.019 mg/ml, 3 μM probe, probe-specific excitation λ, emission 545 nm): Increases
RFU change (Signal deviation with increasing [Carbohydrate]) ([3]; Glucose 5-0.019 mg/ml, 3 μM probe, spectral analysis, Excitation 300-500, Emission 545): Increases
carbohydrate can be detected and/or differentiated by the LCO ([3]; Glucose, conclusion from change in signal magnitude and/or shift in λmax): can be detected and/or differentiated
Gradient Parameters (gradient of regression line) [3, 12]: 625.1 ± 130.2
Linear relationship [3, 12]: Significant
Quality of Gradient [3, 12]: Positive
Sensitivity ([3]; to glucose): Yes
RFU change (Correlation analysis) ([4]; Amylose 5-0.019 mg/ml, 3 μM probe): Increases
RFU change (Signal deviation with increasing [Carbohydrate]) ([4]; Amylose 5-0.019 mg/ml, 3 μM probe, spectral analysis, Excitation 300-500, Emission 545): Increases
carbohydrate can be detected and/or differentiated by the LCO ([4]; Amylose): can be detected and/or differentiated
RFU change (Correlation analysis) ([4]; Cellulobiose 5-0.019 mg/ml, 3 μM probe): Increases
RFU change (Signal deviation with increasing [Carbohydrate]) [4, 13]: Increases
λmax change [4, 13]: No change
carbohydrate can be detected and/or differentiated by the LCO ([4]; Cellulobiose): can be detected and/or differentiated
Gradient Parameters (gradient of regression line) [4, 14]: −7.6 ± 208.9
Quality of Gradient [4, 14]: Horizontal
Linear relationship [4, 15]: Significant
Quality of Gradient [4, 15]: Positive
Sensitivity ([4]; to amylose): Yes
Sensitivity ([4]; to cellulobiose): Yes
RFU change (Correlation analysis) ([5]; Glycogen 5-0.019 mg/ml, 3 μM probe): Decreases
RFU change (Signal deviation with increasing [Carbohydrate]) [5, 16]: Decreases
λmax change [5, 16]: Redshift
carbohydrate can be detected and/or differentiated by the LCO ([5]; Glycogen, conclusion from change in signal magnitude and/or shift in λmax): can be detected and/or differentiated
RFU change (Correlation analysis) ([5]; Heparin 5-0.019 mg/ml, 3 μM probe): Unclear
RFU change (Signal deviation with increasing [Carbohydrate]) ([5]; Heparin 5-0.019 mg/ml, 3 μM probe, spectral analysis, Excitation 300-500, Emission 545): Unclear
Gradient Parameters (gradient of regression line) ([5]; glycogen concentration vs RFU): −665.8 ± 88.9
Linear relationship ([5]; glycogen concentration vs RFU): Significant
Quality of Gradient ([5]; glycogen concentration vs RFU): Negative
Gradient Parameters (gradient of regression line) ([5]; heparin concentration vs RFU): −3.2 ± 49.3
Linear relationship ([5]; heparin concentration vs RFU): Not Significant
Quality of Gradient ([5]; heparin concentration vs RFU): Horizontal
Sensitivity ([5]; to glycogen): Yes
Sensitivity ([5]; to heparin): No
RFU change (Correlation analysis) ([6]; Chondroitin Sulfate A 5-0.019 mg/ml, 3 μM probe, probe-specific excitation λ, emission 545 nm): Unclear
RFU change (Signal deviation with increasing [Carbohydrate]) [6, 17]: Unclear
λmax change [6, 17]: No change
Gradient Parameters (gradient of regression line) [6, 18]: −67.88 ± 90.0
Quality of Gradient [6, 18]: Horizontal
Sensitivity ([6]; to Chondroitin Sulfate A): No
